Activity calls are given as the source filed them.
How the values were obtained:
[1] = biological target: T1, Nuclear receptor subfamily 0 group B member 1 (Homo sapiens, UniProt P51843); assay: Luminescence-based cell-based high throughput dose response assay for inhibitors of the orphan nuclear receptor subfamily 0, group B, member 1 (DAX1; NR0B1). [Related pubchem assays (depositor defined):AID504766, AID504790]; format: functional
T1 sequence (P51843 whole entry): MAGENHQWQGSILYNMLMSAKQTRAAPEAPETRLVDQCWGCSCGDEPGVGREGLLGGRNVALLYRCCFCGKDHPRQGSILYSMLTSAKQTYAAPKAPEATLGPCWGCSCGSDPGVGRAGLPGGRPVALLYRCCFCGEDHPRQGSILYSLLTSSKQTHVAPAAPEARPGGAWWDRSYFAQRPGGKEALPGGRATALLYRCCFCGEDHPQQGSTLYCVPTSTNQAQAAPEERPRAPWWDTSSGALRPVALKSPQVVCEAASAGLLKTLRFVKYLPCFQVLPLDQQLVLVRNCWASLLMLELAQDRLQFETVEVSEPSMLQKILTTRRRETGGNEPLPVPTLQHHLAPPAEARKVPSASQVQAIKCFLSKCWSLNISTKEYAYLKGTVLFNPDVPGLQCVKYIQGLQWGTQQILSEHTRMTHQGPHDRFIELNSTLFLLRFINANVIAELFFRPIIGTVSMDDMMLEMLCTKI

[2] = test system: HEK293; assay: cells; format: functional, cell-based; conditions: Homo sapiens
[3] = restored growth of temperature-sensitive Burl-1 yeast – whole organism, S. cerevisiae, Burl-1 ts mutant, luminescence, counter-screen for SUMOylation pathway inhibitor project, dose response (AID 463199); format: functional
[4] = microbe, parasite or virus in culture; format: functional; conditions: Mycobacterium tuberculosis
[5] = biological target: Serine/threonine-protein phosphatase (Candida dubliniensis (strain CD36 / CBS 7987 / NCPF 3949 / NRRLY-17841) (Yeast), UniProt B9W6M3); assay: blockers of CaCl2-induced CDRE-lacZ signaling – S. cerevisiae, luminescence, secondary, dose response (AID 2388); format: functional, cell-based;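 note: yeast reporter cells carrying a calcineurin-responsive lacZ construct stimulated with calcium chloride; luminescent beta-galactosidase reporter signal in whole cells rather than isolated phosphatase activity; potency for inhibition where a drop in reporter signal means calcineurin blockade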
Sequence of Serine/threonine-protein phosphatase (B9W6M3 whole entry): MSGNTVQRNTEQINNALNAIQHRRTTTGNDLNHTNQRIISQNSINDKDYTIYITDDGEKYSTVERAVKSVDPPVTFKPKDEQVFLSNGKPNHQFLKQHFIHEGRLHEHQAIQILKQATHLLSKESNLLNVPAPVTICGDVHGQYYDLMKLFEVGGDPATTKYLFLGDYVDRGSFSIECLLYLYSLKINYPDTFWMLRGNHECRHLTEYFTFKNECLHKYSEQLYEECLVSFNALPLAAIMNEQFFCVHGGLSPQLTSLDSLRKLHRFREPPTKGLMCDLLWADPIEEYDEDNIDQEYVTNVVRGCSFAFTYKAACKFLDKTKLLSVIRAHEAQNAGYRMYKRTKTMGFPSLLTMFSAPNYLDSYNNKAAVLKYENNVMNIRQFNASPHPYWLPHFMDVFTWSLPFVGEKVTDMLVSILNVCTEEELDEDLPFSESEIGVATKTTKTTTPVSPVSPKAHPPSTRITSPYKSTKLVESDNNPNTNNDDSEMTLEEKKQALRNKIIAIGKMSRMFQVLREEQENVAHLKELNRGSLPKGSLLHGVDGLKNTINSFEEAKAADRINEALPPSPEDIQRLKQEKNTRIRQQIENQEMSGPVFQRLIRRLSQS

[6] = biological target: ATP-dependent molecular chaperone HSP82 (Candida albicans (strain WO-1) (Yeast), UniProt C4YTQ8); assay: steroid-induced GRE reporter decrease in yeast – S. cerevisiae, luminescence, Hsp90 inhibitor project, dose response (AID 2400); format: functional, cell-based;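 note: beta-galactosidase luminescence from glucocorticoid response element reporter as proxy for Hsp90 function; inhibitor potency where signal loss means Hsp90 inhibition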
Sequence of ATP-dependent molecular chaperone HSP82 (C4YTQ8 whole entry): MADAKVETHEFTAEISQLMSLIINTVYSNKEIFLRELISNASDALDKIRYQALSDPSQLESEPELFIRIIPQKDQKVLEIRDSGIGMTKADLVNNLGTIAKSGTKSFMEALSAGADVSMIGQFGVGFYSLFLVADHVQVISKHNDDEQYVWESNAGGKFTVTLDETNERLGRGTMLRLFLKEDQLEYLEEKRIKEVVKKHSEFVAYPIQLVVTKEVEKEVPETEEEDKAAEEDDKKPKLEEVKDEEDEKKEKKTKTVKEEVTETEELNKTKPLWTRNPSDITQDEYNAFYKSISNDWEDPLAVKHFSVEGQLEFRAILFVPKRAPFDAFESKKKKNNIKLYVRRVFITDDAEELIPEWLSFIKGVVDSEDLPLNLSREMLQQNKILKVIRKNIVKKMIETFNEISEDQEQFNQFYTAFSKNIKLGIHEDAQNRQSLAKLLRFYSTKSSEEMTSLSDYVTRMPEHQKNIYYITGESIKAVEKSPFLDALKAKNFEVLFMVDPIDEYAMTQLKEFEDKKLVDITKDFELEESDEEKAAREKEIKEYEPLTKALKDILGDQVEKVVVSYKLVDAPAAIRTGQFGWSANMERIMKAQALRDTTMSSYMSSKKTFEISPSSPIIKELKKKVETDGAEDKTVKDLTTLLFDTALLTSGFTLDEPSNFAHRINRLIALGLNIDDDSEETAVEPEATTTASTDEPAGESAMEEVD

[7] = fluconazole-exposed Candida albicans growth modulators – fluorescence, retest, confirmation (AID 2467); format: functional, cell-based
[8] = NIH-3T3 fibroblast cytotoxicity, dose response, cytotoxicity control, cell-based, fluorescence, Alamar Blue, secondary assay (AID 2327); format: functional;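 note: NIH-3T3 mouse fibroblasts cultured with fluconazole at 8 µg/mL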
[9] = biological target: T2, Microphthalmia-associated transcription factor (Homo sapiens, UniProt O75030); assay: reducers of TRPM1 reporter luminescence, concentration series – cell-based, SK-MEL-5, cherry-picked, set 3, MITF inhibitor project, dose response (AID 493073); format: functional;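 note: SK-MEL-5 melanoma cells with luciferase driven by the MITF target TRPM1 promoter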
T2 sequence (O75030 whole entry): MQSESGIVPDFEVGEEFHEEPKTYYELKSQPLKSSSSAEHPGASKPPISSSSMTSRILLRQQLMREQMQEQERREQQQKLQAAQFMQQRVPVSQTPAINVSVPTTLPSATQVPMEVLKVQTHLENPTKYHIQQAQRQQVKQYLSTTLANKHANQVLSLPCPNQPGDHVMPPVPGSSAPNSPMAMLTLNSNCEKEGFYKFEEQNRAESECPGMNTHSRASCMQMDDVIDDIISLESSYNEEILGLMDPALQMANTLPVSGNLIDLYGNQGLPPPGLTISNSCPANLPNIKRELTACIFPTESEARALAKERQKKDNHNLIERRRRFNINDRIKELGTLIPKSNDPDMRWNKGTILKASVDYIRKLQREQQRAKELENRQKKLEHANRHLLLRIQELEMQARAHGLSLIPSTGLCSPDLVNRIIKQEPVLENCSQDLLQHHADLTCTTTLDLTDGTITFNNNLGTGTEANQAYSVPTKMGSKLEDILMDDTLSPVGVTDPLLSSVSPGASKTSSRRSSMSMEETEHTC

[10] = biological target: T3, Endoribonuclease toxin MazF (Escherichia coli K-12, UniProt P0AE70); assay: activation of MazEF endoribonuclease cleavage – biochemical, fluorescence, single-stranded RNA substrate, uHTS hits, dose response (AID 588481); format: functional
T3 sequence (P0AE70 whole entry): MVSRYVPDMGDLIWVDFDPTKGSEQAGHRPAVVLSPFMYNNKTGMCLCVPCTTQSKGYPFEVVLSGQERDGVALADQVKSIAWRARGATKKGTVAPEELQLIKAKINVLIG

[11] = biological target: T3, Endoribonuclease toxin MazF; assay: substrate-only fluorescence increase artefacts – biochemical, single-stranded RNase substrate, counter-screen for MazEF activator project, dose response (AID 588502); format: functional
[12] = test system: A-375; assay: MITF: Counter assay: A375 proliferation Measured in Cell-Based System Using Plate Reader - 2084-03_Inhibitor_Dose_DryPowder_Activity. [Related pubchem assays (depositor defined):AID488944]; format: functional; conditions: Homo sapiens
[13] = test system: A-375; assay: proliferation inhibition in MITF-low A375 cells – cell-based, cherry-pick samples, set 2, counter-screen for MITF modulator project, dose response (AID 540335); format: functional; conditions: Homo sapiens
[14] = biological target: CAAX prenyl protease 2 (Saccharomyces cerevisiae S288c, UniProt Q03530); format: biochemical
Sequence of CAAX prenyl protease 2 (Saccharomyces cerevisiae S288c, UniProt Q03530) (Q03530 whole entry): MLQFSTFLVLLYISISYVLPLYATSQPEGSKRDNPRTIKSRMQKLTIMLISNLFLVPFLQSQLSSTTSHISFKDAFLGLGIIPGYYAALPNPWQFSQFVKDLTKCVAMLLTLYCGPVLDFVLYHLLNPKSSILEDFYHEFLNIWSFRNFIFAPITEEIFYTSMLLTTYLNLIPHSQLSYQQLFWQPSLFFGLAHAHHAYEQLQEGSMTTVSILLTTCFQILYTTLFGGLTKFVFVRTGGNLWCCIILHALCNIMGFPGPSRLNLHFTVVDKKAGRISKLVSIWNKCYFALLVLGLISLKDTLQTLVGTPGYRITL

[15] = biological target: CAAX prenyl protease 2 (Homo sapiens, UniProt Q9Y256); assay: inhibition of Ras-converting CAAX protease Rce1 – biochemical, yeast membranes, quenched-peptide fluorescence, cherry-pick, dose response (AID 588849)
Sequence of CAAX prenyl protease 2 (Homo sapiens, UniProt Q9Y256) (Q9Y256 whole entry): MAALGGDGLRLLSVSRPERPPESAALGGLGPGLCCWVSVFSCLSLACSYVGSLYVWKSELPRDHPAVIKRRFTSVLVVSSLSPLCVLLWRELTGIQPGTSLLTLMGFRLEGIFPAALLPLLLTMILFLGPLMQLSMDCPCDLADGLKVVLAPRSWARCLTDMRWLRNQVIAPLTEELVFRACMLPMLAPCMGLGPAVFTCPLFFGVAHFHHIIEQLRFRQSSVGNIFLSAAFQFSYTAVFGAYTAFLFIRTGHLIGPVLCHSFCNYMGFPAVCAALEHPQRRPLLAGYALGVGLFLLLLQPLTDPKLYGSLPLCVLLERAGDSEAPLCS

[16] = biological target: Beta-2 adrenergic receptor (Homo sapiens, UniProt P07550); assay: ADRB2 activation measured by internalization – cell-based, FAP fluorogen, flow cytometry, cherry pick 1, dose response (AID 588763); format: functional
Sequence of Beta-2 adrenergic receptor (P07550 whole entry): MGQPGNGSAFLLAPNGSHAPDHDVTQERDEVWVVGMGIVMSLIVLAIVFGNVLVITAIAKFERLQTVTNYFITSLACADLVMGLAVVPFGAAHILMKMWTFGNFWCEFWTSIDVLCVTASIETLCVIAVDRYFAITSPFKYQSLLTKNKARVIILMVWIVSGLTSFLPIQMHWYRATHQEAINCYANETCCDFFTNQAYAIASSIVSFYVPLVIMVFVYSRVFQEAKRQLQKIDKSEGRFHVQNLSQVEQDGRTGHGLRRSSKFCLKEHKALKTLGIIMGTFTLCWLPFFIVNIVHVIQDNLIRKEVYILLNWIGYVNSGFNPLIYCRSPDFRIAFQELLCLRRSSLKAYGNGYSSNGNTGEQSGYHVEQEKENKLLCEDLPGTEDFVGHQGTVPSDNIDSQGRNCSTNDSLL

[17] = biological target: Eukaryotic translation initiation factor 4E (Mus musculus, UniProt P63073); assay: blockers of eIF4G binding by eIF4E – biochemical, TR-FRET, dose response (AID 855); format: functional;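 note: potency for disrupting eIF4E binding to eIF4GI seen as loss of FRET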
Sequence of Eukaryotic translation initiation factor 4E (P63073 whole entry): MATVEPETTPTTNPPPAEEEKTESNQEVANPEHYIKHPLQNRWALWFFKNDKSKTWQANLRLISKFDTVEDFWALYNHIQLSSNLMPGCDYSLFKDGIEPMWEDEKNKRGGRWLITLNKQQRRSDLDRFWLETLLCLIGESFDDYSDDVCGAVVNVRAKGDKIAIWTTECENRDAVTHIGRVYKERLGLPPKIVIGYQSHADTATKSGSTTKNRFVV

With CCCCNc1cc(=O)n(C)c(=O)[nH]1 the IC50 [1] was > 67.5 µM (inactive) and the IC50 [2] was > 67.5 µM (inactive).

For Cc1ccc(NC2c3ncccc3C(=O)N2C2CCCCC2)cc1C (stereo unspecified), the AC50 [3] was 161 µM (active).

For CCc1ccc(C2c3[nH]c4ccccc4c3CCN2C(=O)c2ccc(=O)n(C)n2)cc1 (stereo unspecified), the CC50 [4] was > 40 µM (active), the EC50 [5] was > 180 µM (inactive) and the EC50 [6] was > 160 µM (inactive). The EC50 [7] was 0.223 µM (active) and the EC50 [8] was > 160 µM (inconclusive).

With N=c1n(CC(=O)c2ccc([N+](=O)[O-])cc2)c2ccccc2n1Cc1ccccc1 the AC50 [9] was 4.83 µM (active), the EC50 [10] was > 99 µM (inactive) and the EC50 [11] was > 99 µM (inactive). The AC50 [12] was > 11 µM (active) and the AC50 [13] was > 11 µM (active).

For O=C(OC[C@@H]1CCCN2CCCC[C@H]12)c1cc2ccccc2oc1=O, the AC50 [14] was 16.3 µM (active) and the AC50 [15] was 55.9 µM (active).

For Cc1ccc(OCc2cc(C(=O)NCc3cnn(-c4cccc(F)c4)c3)no2)cn1, the EC50 [16] was 0.195 µM (active), the EC50 [7] was 0.964 µM (active) and the EC50 [8] was > 160 µM (inactive).

In the case of O=c1c(-c2ccccc2)coc2c(CN3CCCC3)c(O)ccc12, the IC50 [17] is reported as > 64 µM (inactive) and the AC50 [15] is reported as 16.2 µM (active).

In the case of O=C(CSc1nnc(CNC(=O)c2ccco2)o1)Nc1nc2ccccc2s1, the AC50 [3] is reported as 54 µM (active).

From ChEMBL document CHEMBL1201862, “PubChem BioAssay data set” (2004)
